Experimental data taken from PubChem BioAssay (NCI).
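Protocol summary: plate cells (96-well), add compound at 5 concentrations, incubate 48 h, interpolate endpoints linearly. At the GI50, growth is halved. TGI is the concentration that stops growth completely.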

Legend:
Assay in all cases: NCI tumour cell line growth inhibition, 48 h
[1] = test system: SNB-75 CNS
[2] = test system: COLO 205 colon
[3] = test system: HS 578T breast
[4] = test system: SNB-19 CNS
[5] = test system: PC-3 prostate
[6] = test system: MDA-MB-231 breast
[7] = test system: UACC-62 melanoma
[8] = test system: NCI-H23 lung
[9] = test system: SF-539 CNS
[10] = test system: BT-549 breast
[11] = test system: A549 NSCLC
[12] = test system: SR leukemia
[13] = test system: NCI-H522 lung
[14] = test system: RPMI-8226 leukemia
[15] = test system: U251 CNS
[16] = test system: KM12 colon
[17] = test system: HCT-116 colon
[18] = test system: HT29 colon
[19] = test system: T-47D breast
[20] = test system: HL-60(TB) leukemia
[21] = test system: HOP-92 NSCLC
[22] = test system: MCF7 breast
[23] = test system: NCI-H460 lung
[24] = test system: 786-0 renal
[25] = test system: IGROV1 ovarian
[26] = test system: MALME-3M melanoma
[27] = test system: K-562 leukemia
[28] = test system: HCC-2998 colon
[29] = test system: SF-295 CNS
[30] = test system: NCI/ADR-RES ovarian
[31] = test system: DU-145 prostate
[32] = test system: CAKI-1 renal
[33] = test system: M14 melanoma
[34] = test system: SF-268 CNS
[35] = test system: A498 renal
[36] = test system: OVCAR-4 ovarian
[37] = test system: MDA-MB-435
[38] = test system: HCT-15 colon
[39] = test system: SK-MEL-2 melanoma
[40] = test system: LOX IMVI melanoma
[41] = test system: NCI-H226 lung
[42] = test system: OVCAR-5 ovarian
[43] = test system: OVCAR-3 ovarian
[44] = test system: SK-MEL-28 melanoma
[45] = test system: ACHN renal
[46] = test system: UACC-257 melanoma
[47] = test system: SW-620 colon
[48] = test system: SN12C renal
[49] = test system: SK-MEL-5 melanoma
[50] = test system: OVCAR-8 ovarian
[51] = test system: MOLT-4 leukemia
[52] = test system: SK-OV-3 ovarian
[53] = test system: CCRF-CEM leukemia
[54] = test system: EKVX NSCLC
[55] = test system: HOP-62 NSCLC
[56] = test system: TK-10 renal
[57] = test system: UO-31 renal
[58] = test system: RXF 393 renal

C[C@H](Nc1ncnc2ccc(-c3cnc(Cl)c(NS(C)(=O)=O)c3)cc12)c1ccccc1
GI50 [1]: 0.257 µM
TGI [1]: 4.83 µM
GI50 [2]: 2.29 µM
TGI [2]: 7.61 µM
GI50 [3]: 0.199 µM
TGI [3]: 0.862 µM
GI50 [4]: 1.18 µM
TGI [4]: 9.94 µM
GI50 [5]: 0.806 µM
TGI [5]: 37.1 µM
GI50 [6]: 1.03 µM
TGI [6]: 2.7 µM
GI50 [7]: 0.379 µM
TGI [7]: 2.16 µM
GI50 [8]: 1.07 µM
TGI [8]: 5.18 µM
GI50 [9]: 1.13 µM
TGI [9]: 3.87 µM
GI50 [10]: 0.272 µM
TGI [10]: 2.05 µM
GI50 [11]: 3.17 µM
TGI [11]: 15.7 µM
GI50 [12]: 2.1 µM
TGI [12]: > 100 µM
GI50 [13]: 2.9 µM
TGI [13]: 19.4 µM
GI50 [14]: 4.29 µM
TGI [14]: > 100 µM
GI50 [15]: 1.05 µM
TGI [15]: 30.7 µM
GI50 [16]: 2.3 µM
TGI [16]: 11.8 µM
GI50 [17]: 1.68 µM
TGI [17]: 6.12 µM
GI50 [18]: 2.36 µM
TGI [18]: 19.7 µM
GI50 [19]: 0.175 µM
TGI [19]: 2.41 µM
GI50 [20]: 9.47 µM
TGI [20]: > 100 µM
GI50 [21]: 0.28 µM
TGI [21]: 4.84 µM
GI50 [22]: 0.277 µM
TGI [22]: 10.6 µM
GI50 [23]: 1.39 µM
TGI [23]: 13.5 µM
GI50 [24]: 1.14 µM
TGI [24]: 7.48 µM
GI50 [25]: 0.278 µM
TGI [25]: 1.5 µM
GI50 [26]: 0.242 µM
TGI [26]: 1.88 µM
GI50 [27]: 7.97 µM
TGI [27]: > 100 µM
GI50 [28]: 0.924 µM
TGI [28]: 6.86 µM
GI50 [29]: 0.971 µM
TGI [29]: 4.14 µM
GI50 [30]: 4.76 µM
TGI [30]: 19.7 µM
GI50 [31]: 2.73 µM
TGI [31]: 28.4 µM
GI50 [32]: 1.11 µM
TGI [32]: 8.21 µM
GI50 [33]: 1.57 µM
TGI [33]: 12.6 µM
GI50 [34]: 1.11 µM
TGI [34]: 10.4 µM
GI50 [35]: 0.269 µM
TGI [35]: 2.3 µM
GI50 [36]: 1.58 µM
TGI [36]: 11.7 µM
GI50 [37]: 1.27 µM
TGI [37]: 10.7 µM
GI50 [38]: 0.766 µM
TGI [38]: 11.2 µM
GI50 [39]: 1.52 µM
TGI [39]: 3.5 µM
GI50 [40]: 0.344 µM
TGI [40]: 1.89 µM
GI50 [41]: 0.943 µM
TGI [41]: 8.41 µM
GI50 [42]: 1.37 µM
TGI [42]: 11.4 µM
GI50 [43]: 0.627 µM
TGI [43]: 2.94 µM
GI50 [44]: 0.491 µM
TGI [44]: 6.77 µM
GI50 [45]: 2.18 µM
TGI [45]: > 100 µM
GI50 [46]: 1.97 µM
TGI [46]: 13.4 µM
GI50 [47]: 2 µM
TGI [47]: 11.3 µM
GI50 [48]: 0.773 µM
TGI [48]: 27.8 µM
GI50 [49]: 1.04 µM
TGI [49]: 2.21 µM
GI50 [50]: 2.27 µM
TGI [50]: 16 µM
GI50 [51]: 4.33 µM
TGI [51]: > 100 µM
GI50 [52]: 1.61 µM
TGI [52]: 7.72 µM
GI50 [53]: 5.46 µM
TGI [53]: > 100 µM
GI50 [54]: 1.2 µM
TGI [54]: 4.36 µM
GI50 [55]: 1.3 µM
TGI [55]: 21 µM
GI50 [56]: 1.91 µM
TGI [56]: 21.5 µM
GI50 [57]: 0.284 µM
TGI [57]: 4.85 µM

CNC(=O)c1cc(-n2ccc3cc(NC(=O)Nc4ccc(N5CCN(C)CC5)c(C(F)(F)F)c4)ccc32)ccn1
GI50 [1]: 1.2 µM
TGI [1]: 4.98 µM
GI50 [2]: 4.21 µM
TGI [2]: 8.75 µM
GI50 [3]: 2.03 µM
TGI [3]: 7.26 µM
GI50 [4]: 3.49 µM
TGI [4]: 7.23 µM
GI50 [5]: 3.6 µM
TGI [5]: 9.56 µM
GI50 [6]: 3.48 µM
TGI [6]: 7.81 µM
GI50 [7]: 4.15 µM
TGI [7]: 8.22 µM
GI50 [8]: 3.87 µM
TGI [8]: 8.32 µM
GI50 [9]: 1.2 µM
TGI [9]: 4.53 µM
GI50 [10]: 2.7 µM
TGI [10]: 5.75 µM
GI50 [11]: 3.58 µM
TGI [11]: 7.36 µM
GI50 [12]: 0.479 µM
TGI [12]: 2.85 µM
GI50 [13]: > 25 µM
TGI [13]: > 25 µM
GI50 [14]: 0.886 µM
TGI [14]: 4.01 µM
GI50 [15]: 2.43 µM
TGI [15]: 5.48 µM
GI50 [16]: 0.866 µM
TGI [16]: 3.88 µM
GI50 [17]: 1.7 µM
TGI [17]: 4.87 µM
GI50 [18]: 0.938 µM
TGI [18]: 3.59 µM
GI50 [19]: 3.65 µM
TGI [19]: 9.08 µM
GI50 [20]: 1.44 µM
TGI [20]: 6.33 µM
GI50 [21]: 1.22 µM
TGI [21]: 4.68 µM
GI50 [22]: 2.3 µM
TGI [22]: 6.34 µM
GI50 [23]: 4.1 µM
TGI [23]: 8.4 µM
GI50 [24]: 2.03 µM
TGI [24]: 5.31 µM
GI50 [25]: 4.12 µM
TGI [25]: 8.44 µM
GI50 [26]: 3.2 µM
TGI [26]: 6.71 µM
GI50 [28]: 3.53 µM
TGI [28]: 7.05 µM
GI50 [29]: 0.492 µM
TGI [29]: 1.11 µM
GI50 [30]: 5.3 µM
TGI [30]: 13.7 µM
GI50 [31]: 3.97 µM
TGI [31]: 7.52 µM
GI50 [32]: 4.15 µM
TGI [32]: 8.3 µM
GI50 [33]: 2.95 µM
TGI [33]: 6.09 µM
GI50 [58]: 0.633 µM
TGI [58]: 1.75 µM
GI50 [34]: 3.3 µM
TGI [34]: 7.43 µM
GI50 [35]: 3.61 µM
TGI [35]: 7.07 µM
GI50 [36]: 3.65 µM
TGI [36]: 8.62 µM
GI50 [37]: 3.67 µM
TGI [37]: 7.17 µM
GI50 [38]: 0.796 µM
TGI [38]: 3.48 µM
GI50 [39]: 4.33 µM
TGI [39]: 7.95 µM
GI50 [40]: 2.68 µM
TGI [40]: 5.95 µM
GI50 [41]: > 25 µM
TGI [41]: > 25 µM
GI50 [42]: 3.57 µM
TGI [42]: 7.74 µM
GI50 [44]: 2.96 µM
TGI [44]: 6.38 µM
GI50 [45]: 3.85 µM
TGI [45]: 7.22 µM
GI50 [46]: 3.97 µM
TGI [46]: 7.6 µM
GI50 [47]: 3.41 µM
TGI [47]: 7.11 µM
GI50 [48]: 3.53 µM
TGI [48]: 7.56 µM
GI50 [49]: 4.28 µM
TGI [49]: 7.79 µM
GI50 [50]: 4.27 µM
TGI [50]: 8.27 µM
GI50 [51]: 0.744 µM
TGI [51]: 2.91 µM
GI50 [52]: 4.21 µM
TGI [52]: 7.75 µM
GI50 [53]: 2.54 µM
TGI [53]: 16 µM
GI50 [54]: 3.46 µM
TGI [54]: 6.88 µM
GI50 [55]: 3.41 µM
TGI [55]: 7.46 µM
GI50 [56]: 4.39 µM
TGI [56]: 8.16 µM
GI50 [57]: 4.27 µM
TGI [57]: 8.56 µM
